Entries after “also recorded” stand apart in the source; their conditions may differ. Like-named read-outs stand apart in the source and are kept apart here.
Experiments:
[1] = Kurtz and Perry assessment of phase matching properties; type: physicochemical; conditions: graded powders 550 μm to 40 μm, 12 ns pulses at 1064 nm, fixed input pulse energy
Description: The phase matching properties of those more promising materials which performed well in the initial screening have been evaluated using the well established Kurtz and Perry technique (J Appl Phys, 1968, 39, 3798). In this method the SHG intensity (λ=532 nm) is measured as a function of the particle size for a fixed input pulse energy. […] The consequence of this is that the harmonic fields can build up in amplitude thus making the material more desirable for SHG applications.
To perform the Kurtz and Perry test powdered samples of the materials were graded using a mechanical shaker set up with a set of standard sieves (550 μm to 40 μm). The graded powders were then mounted in a thin aluminium holder placed between two glass slides. The following criteria was used to ensure the validity of the method: r<L<D where, • r=average particle size • L=thickness of the powdered sample (i.e. thickness of the aluminium spacer) • D=diameter of the laser beam incident on the sample. In the present experiments, there was at least an order of magnitude difference between these parameters.
The same laser as before was used to provide 12 ns FWHM pulses at 1064 nm. […] The magnitude of the SHG signal was measured as the number of counts using an Optical Multichannel Analyser (OMA) with an intensified array. This was preferred to a photomultiplier tube as it enabled the presence of any fluorescence or abnormal spectral emissions from the sample, for example due to damage etc., to be determined.

[2] = Initial screening of SHG response of powdered samples at 1064 nm; type: physicochemical; conditions: ungraded powder between glass plates, pulsed Nd:YAG laser 1064 nm, green light judged by eye against ungraded urea or ADP
Source text: Samples of all of the materials prepared as described above were first subjected to an initial screening with the results shown in Table 1. For this examination ungraded (as to size) powdered samples of each material were sandwiched between two glass plates which were then held in the path of a pulsed Nd:YAG laser operating at 1064 nm. (Model SL804 from Spectron Laser Systems Ltd). The SHG response was judged by viewing the intensity of green light generated (viewed through laser goggles which passed green light but stopped the fundamental 1064 nm radiation). The SHG activity was qualitatively compared to that of a reference sample which was either ungraded urea or ammonium dihydrogen phosphate (ADP).

[3] = transmission spectrum
[4] = Crystal stability on storage; type: physicochemical; conditions: on standing after removal from growing solution or in sealed container
[5] = crystals grown from solution by lowering temperature
Description: Crystals of M4, M35 and M3 were grown from solution by lowering the temperature of the saturated solutions. The crystal growth equipment consists of a heated tank of water into which the vessel containing the saturated solution of the material is held. The glass tank is heated through a UV block filter by an infra-red lamp. The temperature is controlled by a mercury contact thermometer. The glass tank is covered by aluminium foil to exclude UV in sunlight from entering the glass tank.
(§1) Crystals of M4 have been grown using the equipment described above, both from ethanol and IPA by reduction of temperature of the saturated solutions (12 g of M4 in 820 ml of ethanol) from 40° C. to 25° C. A seed crystal, which had been previously washed with a solvent was suspended from a stirrer and carefully introduced into the saturated solution. […] Several temperature decay rates were tried.
The solubility of M35 has been determined in isopropyl alcohol/water (10:1 ratio) mixture over a temperature range of 5° C. to 40° C.

[6] = judged by eye
Source text: The capability for novel materials of the invention to achieve frequency doubling into the blue area of the spectrum was examined. The light source for this investigation was a MOPO (Master Oscillator Power Oscillator) model 730-10 pumped by GCR 270-10 Nd:YAG laser (supplied by Spectra Physics). The incident pulse width output from this laser ranged from 4 ns to 6 ns. Light of a specified wavelength was directed onto a sample sandwiched between two plates in a sample holder. In order to determine the energy which was incident on a sample for each test wavelength, the sample holder was movable in and out of the light beam and an energy meter was located behind the sample position so that the light beam would be directed onto the meter when a sample was not in position. The test wavelengths used were 950 nm, 850 nm, 800 nm and 780 nm. The energy meter was a Scientech AD30 meter employing a calorimetric detector type AC2501H supplied by Scientech.
Samples of the M4, M3 and M35 materials were tested for frequency doubling effect at each of the test wavelengths, the performance of each sample being judged qualitatively by eye by examination of the frequency doubled radiation scattered from the sample. These qualatative assessments were compared with that of a similarly prepared sample of urea having the same particle size as the materials of the invention. […] The M3 and M4 samples were ungraded while the M35 sample was a 212–300 μm graded sample.

[7] = Description: as §1
[8] = wavelength 780 nm, energy 16.7 mJ
[9] = wavelength 800 nm, energy 14.8 mJ
[10] = wavelength 850 nm, energy 12.3 mJ

Compound	Phase matching (SHG signal level at 532 nm as a function of particle size) [1]	SHG Response [2]	SHG activity of grown crystals [5]	Frequency doubling compared with urea [6, 8]	Frequency doubling compared with urea [6, 9]	Frequency doubling compared with urea [6, 10]	Frequency doubling compared with urea ([6]; wavelength 950 nm, energy 9 mJ)	further results
N.O=P(O)(O)O [ADP, ammonium dihydrogen phosphate, reference compound]	phase matching materials							
NC(N)=O [urea, reference compound]	phase matching materials							
Morpholinium 3,5-dihydroxybenzoate [Example M35]	does not decrease for increasing particle size	slightly better than urea	high SHG activity	better	slightly less	same or better	same or better	Optical transparency limit of single crystal [3]: ≥ 350 mm; Stability of crystals [4]: stable and do not show any deterioration in quality
Morpholinium 3-fluoro-4-hydroxybenzoate [Example M3F4]		slightly weaker than that of urea						
Morpholinium 3-hydroxybenzoate [Example M3]	does not decrease for increasing particle size	slightly weaker than urea	exhibit SHG activity	Less	Much less	Less	Slightly less	
Morpholinium 4-hydroxybenzoate [Example M4]	does not decrease for increasing particle size	better than for urea	high SHG activity	Slightly less	Slightly less	Slightly less	Better	Relative solubility ([7]; IPA compared with ethanol): less soluble in IPA; Amount in saturated solution ([7]; in 820 ml of ethanol, saturated solution, 40° C.): 12 g
Morpholinium 4-hydroxycinnamate [Example M4HCA]		greater than that of urea; also recorded: better than urea						
dimorpholinium 2,3,5,6-tetrafluoro-4-hydroxybenzoate [Example M24F4]		weaker than that of urea but better than for ADP						
thiomorpholinium 3,5-dihydroxybenzoate [TM35]		slightly better than for urea						
thiomorpholinium 4-hydroxybenzoate [TM4]		slightly better than for ADP						Stability of crystals [4]: unstable, with the crystals becoming opaque over time
